Assay results from patent US20240189263A1, “DERIVATIZED C60 MOLECULES AND METHODS AND MATERIALS FOR USING DERIVATIZED C60 MOLECULES TO REDUCE RADIATION INJURY” (Mayo Foundation for Medical Education and Research, priority 2021, published 2024).

Columns and labels:
[1] = test system: N2A cells; experiment: MTS cytotoxicity assay, N2A; format: cell-based; conditions: 1-1000 μM, 24, 48 or 72 hours
Description: (§1) Cytotoxicity of C60-ser was determined by an MTS (3-(4,5-dimethylthiazol-2-yl)-5-(3-carboxymethoxyphenyl)-2-(4-sulfophenyl)-2H-tetrazolim) colorimetric assay on four different cell lines, each representing a different cell type. Specifically, HepG2 (liver epithelium), HUVEC (endothelial cells), N2A (neuroblastoma cells representative of normal neurons), and NIH3T3 (fibroblasts) were analyzed. The cells were seed in a 96-well tissue culture polystyrene plate at different seeding concentrations based on the cell's doubling time. HUVEC cells were seeded at 10,000 cells/well (24 hour experiments), 8,000 cells/well (48 hour experiments), and 5,000 cells/well (72 hour experiments), and incubated for 24 hours in a humidified atmosphere with 5% C02 at 37° C. […] After incubation with MTS, the optical density (OD) of the resulting formazan solution was read at 490 nm using a microplate reader (Biotek Cytation 5 cell Imaging Multi-Mode reader, Winooski, VT). The cell viability was obtained by normalizing the absorbance of the sample with that of the control wells containing untreated cells. The cell viability was expressed as a percentage, assigning the viability of non-treated cells as 100%. […]

[2] = test system: C57B16 mice; experiment: Whole body radiation protection, survival; format: in vivo
[3] = test system: N2A cells; experiment: Classic clonogenics survival assay of irradiated cells, N2A; format: cell-based
Description: (§2) A classic clonogenics assay was performed to further test the ability of C60-ser to protect against radiation damage. After irradiation, a fraction of the cells will undergo radiation-induced death, whereas other cells remain metabolically active and are able to undergo a few cycles of mitosis before meeting their endpoint. Since many cells remain metabolically activity, classic toxicity measurements such as an MTT measurement are not able to catch the full effects of radiation damage. In contrast, a classic clonogenics assay, which plates a known number of cells and tracks development of colonies, is able to track the number of cells that maintain their clonogenicity. With increasing radiation doses, the fraction of cells that maintain clonogenicity decrease. Therefore, a successful radioprotectant is able to increase the number of surviving colonies compared to the control at the same radiation doses.
(§3) N2A, NIH3T3, and HepG2 cells were plated in 35 mm dishes and treated with 100 μM C60-ser for 2 hours prior to washing with PBS and irradiation at 0, 2, 4, and 6 Gy with a 230 MeV proton beam. Following radiation, a known number of cells were re-plated in six well plates and allowed to grow in culture for 8-14 days to allow for colony formation. To account for cell death with higher radiation doses, a larger number of cells were plated with increasing doses received. […]

[4] = test system: HUVEC cells; experiment: MTS cytotoxicity assay, HUVEC; format: cell-based; conditions: 1-1000 μM, 24, 48 or 72 hours
Description: as §1

[5] = test system: NIH3T3 cells; experiment: Classic clonogenics survival assay of irradiated cells, NIH3T3; format: cell-based
Description: as §2, §3

[6] = Zeta-potential of C60-ser aggregates; format: physicochemical; conditions: 0.1 mg/mL and 10 mg/mL in deionized water
Description: Analysis was performed using a ZEN 3600 Malvern Zetasizer (Worcestershire, UK) equipped with a 633 nm laser. The electrophoretic mobilities (p) of the aggregates was measured by applying an electric field to the C60-ser solution and measuring the speed and direction of the aggregate's motion. Zeta-potentials were calculated using the solvent viscosity (n) and the water dielectric constant (e). To perform the measurements, C60-ser molecules were dissolved in deionized water, and the solution electrical conductivity was adjusted to 25-50 μS/cm by addition of small amounts of neutral 2-(N-morpholino)ethanesulfonic acid (MES) buffer. The zeta-potential of C60-ser aggregates was measured at a concentration of 0.1 mg/mL in deionized water (FIG. 5A) and 10 mg/mL in deionized water (FIG. 5B).

[7] = test system: HepG2 cells; experiment: MTS cytotoxicity assay, HepG2; format: cell-based; conditions: HepG2, 1-1000 μM, 24, 48 or 72 hours
Description: as §1

O=C(NC(CO)CO)C1(C(=O)NC(CO)CO)C23c4c5c6c7c8c4-c4c2c2c9c%10c4C4%11c%12c-%10c%10c%13c%14c%12-c%12c(c-7c7c%15c%12C%14%12C(C(=O)NC(CO)CO)(C(=O)NC(CO)CO)C%12%14c%12c%16c%17c%18c(c%12-%15)C7%12C(C(=O)NC(CO)CO)(C(=O)NC(CO)CO)C6%12c6c-5c5c7c(c6-%18)C%176C(C(=O)NC(CO)CO)(C(=O)NC(CO)CO)C6%12c6c-7c(c-2c2c6-c6c%12c-%16c%14c-%13c6C%106C(C(=O)NC(CO)CO)(C(=O)NC(CO)CO)C926)C513)C84C%11(C(=O)NC(CO)CO)C(=O)NC(CO)CO (centres unmarked) [C60-ser, C60-serinol]
percent viability [1]: did not result in a significant decrease in viability
protection from whole body x-ray radiation-induced death ([2]; given systemically 12 hours after radiation): protected mice from whole body x-ray radiation-induced death
survival over 45 day study ([2]; per os 700 mg/kg 12 hours before 9.5 Gy whole-body x-ray, then 70 mg/kg daily for eight days): 100%
survival over 45 day study ([2]; per os 700 mg/kg once 12 hours before 9.5 Gy whole-body x-ray): 100%
fraction of surviving cells ([3]; 100 μM 2 hours before irradiation): increased the fraction of surviving cells
dose enhancement factor (DEF) at 20% surviving fraction ([3]; 100 μM 2 hours, 0-6 Gy 230 MeV proton, one set of clonogenics): 0.91
percent viability [4]: did not result in a significant decrease in viability
fraction of surviving cells ([5]; NIH3T3, 100 μM 2 hours before irradiation): increased the fraction of surviving cells
dose enhancement factor (DEF) at 20% surviving fraction ([5]; NIH3T3, 100 μM 2 hours, 0-6 Gy 230 MeV proton): 0.85±0.03
zeta-potentials of aggregates [6]: close to zero
percent viability [7]: did not result in a significant decrease in viability
